Literature values in patent publication US20250205258A1 (priority 2022, published 2025).

Tests used:
[1] = tested on: ovarian cancer cells SK—OV-3; settings: concentration- and time-dependent, EGFR/AKT/ERK signaling pathway; cited from earlier work
[2] = tested on: STAT3 signaling pathway; settings: by inhibiting the STAT3 signaling pathway; cited from earlier work
[3] = tested on: melanoma A375 cells; settings: concentration- and time-dependent; cited from earlier work
[4] = tested on: neuroblastoma cells U87; settings: through both apoptosis and necrosis; cited from earlier work
[5] = tested on: liver cancer stem cell markers CD133, CD44, and ESA; settings: cited from earlier work

## C[C@]12CC[C@H](O)C[C@H]1CC[C@@H]1[C@@H]2CC[C@]2(C)[C@@H](c3ccc(=O)oc3)CC[C@]12O [bufalin, Bufalin]
[1]
  proliferation of ovarian cancer cells SK—OV-3: inhibit the proliferation
[2]
  tumor microenvironment-mediated angiogenesis: suppress tumor microenvironment-mediated angiogenesis
[3]
  proliferation of melanoma A375 cells: inhibits the proliferation
[4]
  death of neuroblastoma cells U87: induces the death
[5]
  expression of liver cancer stem cell markers CD133, CD44, and ESA: significantly inhibit
